# Measurements reported in patent US5770595A, “Oxime substituted therapeutic compounds” (Cell Therapeutics, Inc., priority 1994, dated 1998).
# Columns and labels:
# [1] = test system: murine peritoneal macrophages; assay: TNF-α release from LPS-stimulated murine peritoneal macrophages; assay type: cell-based; conditions: 0.25 mM, LPS 10 μg/ml
# Procedure: (§1) This example illustrates the ability of inventive compound no. 1521 to inhibit TNF-α release from murine peritoneal macrophages when stimulated with LPS. This assay is a model for septic shock. Macrophages (10^5) were treated with LPS at 10 μg/ml in RPMI media containing 10% fetal calf serum. Supernatants were assayed for TNF by an ELISA technique at various times following LPS stimulation. The cells were treated one hour prior to LPS stimulation with 0.25 mM of inventive compound no. 1521.
# [2] = test system: P388D1 cells; assay: TNF-α release from LPS-stimulated P388D1 cells; assay type: cell-based, murine; conditions: 0.25 mM, LPS 10 μg/ml
# Procedure: as §1, with “of” for “of inventive”, “from P388D1 cells (a” for “from”, “monocyte/macrophage line)” for “peritoneal macrophages”, “P388D1 cells” for “Macrophages”, “mM” for “mM of inventive”
# [3] = test system: MCF-7, Hurdlich, RAS and NIH-3T3 cells; assay: cytotoxicity on several cell lines (BCECF viability); assay type: cell-based; conditions: 24 hours; FIG. 13
# Procedure: Each inventive compound is investigated for cytotoxicity to determine appropriate doses for biological activity assays and to prevent cytotoxic reactions in in vitro assays when characterizing activity. Cells (e.g., NIH-3T3, Ras transformed 3T3 cells, malignant melanoma LD2 cells, etc.) are added to microtiter plates and drug is added about two days after plating. Cell viability is determined using a fluorescent viability slain (e.g., 2',7'-bis-(2-carboroxyethyl)-5-(and -6)-carboxyfluorescein acetoxymethyl ester, BCECF excitation 488 nm and emission 525 nm) 24, 48 or 72 hours after addition of the drug.
# 1522 is not cytotoxic to several cell lines. The cells lines used were MCF-7 a human breast cancer-derived line, Hurdlich cells a human stromal derived line, RAS a codon-12 transformed malignant murine line, and NIH-3T3 a non-Ras transformed parent line of RAS. The cells were treated with various concentrations of drug, and 24 hours later, stained for viability using BCECF and analyzed for fluorescent die uptake (indicating viable cells) using a fluorescence plate reader.
Compound,inhibition of TNF-α release [1],inhibition of TNF-α release [2],cytotoxicity (viability by BCECF) [3]
CC(CCCCn1c(=O)c2c(ncn2C)n(C)c1=O)=NO [Compound no. 1521],inhibited TNF release,inhibited TNF release,
CON=C(C)CCCCn1c(=O)c2c(ncn2C)n(C)c1=O [Compound no. 1522],,,non-toxic at therapeutic concentrations
